Structures are written as SMILES.

The first experiment addresses T1, porcine pancreatic lipase (Sus scrofa, UniProt P00591).
T1 construct: lipase standard LS7 in accordance with the rules of the “Fédération Internationale Pharmaceutique” (=FIP) (porcine pancreatic lipase, 36,700 FIP units/g); host or cells: porcine pancreas
T1 sequence (P00591 1-450): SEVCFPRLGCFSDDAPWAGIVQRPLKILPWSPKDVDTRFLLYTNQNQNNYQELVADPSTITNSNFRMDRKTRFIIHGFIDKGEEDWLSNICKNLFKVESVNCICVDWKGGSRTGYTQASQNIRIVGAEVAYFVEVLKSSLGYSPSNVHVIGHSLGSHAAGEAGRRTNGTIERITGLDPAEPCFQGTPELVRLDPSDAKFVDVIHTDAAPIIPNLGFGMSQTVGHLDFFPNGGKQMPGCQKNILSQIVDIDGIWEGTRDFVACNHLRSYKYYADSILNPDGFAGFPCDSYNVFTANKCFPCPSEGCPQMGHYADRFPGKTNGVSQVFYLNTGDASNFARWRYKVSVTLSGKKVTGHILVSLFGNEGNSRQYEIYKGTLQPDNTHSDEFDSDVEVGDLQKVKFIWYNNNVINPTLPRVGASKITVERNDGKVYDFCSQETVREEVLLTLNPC
The experiment can be described thus: p-nitrophenyl palmitate (pNpp) test: inhibition of lipolytic action of porcine pancreatic lipase in vitro. Type of experiment: biochemical. To be noted: substrate p-nitrophenyl palmitate, 37° C., absorbance at 405 nm; read-out: IC50, porcine pancreatic lipase-inhibiting action in vitro with respect to pNpp. On the procedure: 1. p-nitrophenyl Palmitate Test
In this test the inhibition of the lipolytic action of porcine pancreatic lipase with respect to the test substrate p-nitrophenyl palmitate(=pNpp) under the influence of the test substances of Formula I was determined. Therein, the change in the relative absorbance of the investigated solutions caused by the lipolytic release of p-nitrophenol from pNpp was measured.
(§1) The reagents given below were prepared:
To prepare a “solution A”, 45 mg pNpp was dissolved in 15 ml isopropanol by sonication with ultrasound. To prepare a “solution B”, 558 mg Na-deoxycholate dry substance and 67.5 mg gum arabic were dissolved in 135 ml 0.05 M sodium phosphate buffer (pH=8.0). 15 ml “solution A” was injected into 135 ml ice-cold “solution B” in […] of 1.25 ml with an Eppendorf hand dispenser with stirring at 400 rpm at the highest possible rate. The initial absorbance E1 when determining the blank reading was less than 0.250 U each time.
B. Sodium Chloride Solution 1% (mN)
10 g sodium chloride (NaCl, p.a.) was dissolved in 1000 ml ultrapure water.
C. Lipase Standard Solution (50 FIP units/ml)
120.8 mg lipase standard LS7 in accordance with the rules of the “Fédération Internationale Pharmaceutique” (=FIP) (porcine pancreatic lipase, 36,700 FIP units/g) was dissolved in 50 ml ice-cold sodium chloride solution (B) and filtered through a 0.2 μm syringe filter. 20 ml of the filtrate was diluted with […] sodium chloride solution (B) (corresponding to 50 FIP units/ml).
D. Lipase Calibration Solutions (10–20–30–40 FIP units/ml)
In each case 2–4–6–8 ml lipase standard solution (C) was made up to 10 ml with sodium chloride solution (B) and stored in an ice bath.
E. Lipase Stock Solution (40 FIP units/ml)
8 ml lipase standard solution was made up to 10 ml with sodium chloride solution (B) and stored in an ice bath.
The lipase-inhibitory compounds of Formula I were dissolved in DMSO. A dilution series of 100–0.1 nmol/ml was produced from this stock solution. 100 μl of these dilutions were used in the test. The dilutions were adapted such that the maximum residual activity of the lipase was >90%.
Measurement was effected at 37° C., and the absorbances were measured at a wavelength of 405 nm. The photometric measuring station comprised a photometer and an agitator (from Eppendorf). The photometer was adjusted to 0 U with water. At the start and end of the investigation series, in each case eight blank readings and one lipase calibration series were measured. For the blank readings, in each case 1 ml substrate solution was mixed with 100 μl DMSO, the mixture was shaken for 5 seconds and kept at a controlled temperature for 5 minutes. Then 100 μl sodium chloride solution (B) were added thereto by pipette and the mixture was shaken for a further 5 seconds. After 2 minutes, the increase in absorbance was detected for 4 minutes. The absorbance starting value E1 when determining the blank readings was in each case less than 0.250 U.
For the calibration, 1 ml substrate solution was placed in each of eight cuvettes, mixed with 100 μl DMSO, shaken for 5 seconds and kept at a controlled temperature for 5 minutes. The reaction was started with 100 μl calibration solution. After 2 minutes, the kinetics were detected for 4 minutes. Each concentration was measured twice.
For measuring the inhibitor solutions, 1 ml substrate solution was placed in each of eight cuvettes, mixed with 100 μl inhibitor solution, shaken for 5 seconds and then kept at a controlled temperature for 5 minutes. The reaction was started with 100 μl lipase stock solution. After 2 minutes, the kinetics were detected for 4 minutes. The inhibitor solutions and the lipase standard solution were each prepared immediately before the start of the investigation series. […]
For `CCCCCCC1C(=O)OC1CCCCCOC(=O)Nc1ccccc1` (mixture of isomers) [Example 2, cis/trans-5-(3-hexyl-4-oxo-oxetan-2-yl)pentyl-phenyl carbamate], the IC50 is 47 nM.
On the same count and under the same terms, as for `CCCCCCC1C(=O)OC1CCCCCOC(=O)NC(C)C` (mixture of isomers) [Example 3, cis/trans-5-(3-hexyl-4-oxo-oxetan-2-yl)pentyl-isopropyl carbamate], the figure is 88 nM.
As to `CCCCCCC1C(=O)OC1CCCOC(=O)Nc1ccccc1` (racemic) [Example 7], the IC50 is 107 nM.
On to `CCCCCC[C@@H]1C(=O)O[C@H]1CCCCCOC(=O)Nc1ccc(Oc2ccccc2)cc1` (relative stereo) [Example 1, trans-(3-hexyl-4-oxo-oxetan-2-yl)-pentyl-(phenoxyphenyl)-carbamate], for which the IC50 amounted to 106 nM.
Still for that read-out and setting: in the case of `CCCCCC[C@@H]1C(=O)O[C@H]1CCCCCOC(=O)Nc1ccc(Oc2ccccc2)cc1` [Example 6, (2S,3S)-5-(3-hexyl-4-oxo-oxetan-2-yl)-pentyl-(4-phenoxyphenyl)-carbamate] it was 113 nM; in that of `CCCCCCC1C(=O)OC1CCCCCOC(=O)NCc1ccccc1` (stereo not shown) [Example 8], 187 nM.
On to `CCCCCCC1C(=O)OC1CCCCCOC(=O)Nc1ccc(OCC)cc1` (stereo not shown) [Example 9], for which the IC50 was found to be 67 nM.
Still for that read-out and setting: in the case of `CCCCCCC1C(=O)OC1CCCCCOC(=O)NC(=O)c1ccccc1` (stereo not shown) [Example 10] it was 177 nM; in that of `CCCCCCC1C(=O)OC1CCCCCOC(=O)NCCc1ccccc1` (stereo not shown) [Example 11], 28 nM.
The same measure, in the same setting: in the case of `CCCCCCC1C(=O)OC1CCCCCOC(=O)Nc1ccc(Cl)c(Cl)c1` (stereo not shown) [Example 13] it was 319 nM.

For another experiment, the target named is T1, porcine pancreatic lipase. The experiment can be described thus: Olive oil test: inhibition of porcine pancreatic lipase with respect to triglycerides in olive oil (pH-stat titration). The class given is biochemical. Conditions: substrate olive oil emulsion, pH 9.0, 37.0° C., 10 minutes pre-incubation in ice bath; read-out: IC50, porcine pancreatic lipase-inhibiting action in vitro with respect to triglycerides in olive oil. On the procedure:
In a heterogeneous reaction, the inhibition of the lipolytic action of porcine pancreatic lipase was determined under the influence of the test substances of Formula I with respect to the triglycerides contained in the test substrate olive oil. The fatty acids released by the lipase were titrated with sodium hydroxide solution to pH 9.0.
as §1
A. Gum Arabic Solution 10% (m/V)
200 g gum arabic (Acaciae gummi in accordance with the specifications of the German Pharmacopeia (=DAB)/European Pharmacopeia (=Ph.Eur.) was dissolved in 2000 ml ultrapure water with stirring and if necessary centrifugation. The solution was stored at −20° C. in plastic vessels of capacity of 250 ml. The amount required per day was thawed as required.
B. Sodium Taurocholate Solution 8% (m/V)
8 g sodium taurocholate (FIP) was dissolved in 100 ml ultrapure water.
60.6 mg Tris(hydroxymethyl)aminomethane p.a. (Merck, No. 8382) and 234 mg sodium chloride (p.a.) were dissolved in 100 ml ultrapure water.
D. 0.1 N Sodium Hydroxide Solution […]
1 ml lipase reference suspension was incubated with the respective amount of inhibitor solution for 10 minutes in an ice bath. […] The sodium hydroxide consumption between the 1st and the 5th minute was evaluated. […]
Take `CCCCCC[C@@H]1C(=O)O[C@H]1CCCCCOC(=O)Nc1ccc(Oc2ccccc2)cc1` (relative stereo) [Example 1, trans-(3-hexyl-4-oxo-oxetan-2-yl)-pentyl-(phenoxyphenyl)-carbamate]: the IC50 is 17 nM.

Another experiment has as its system pancreatic lipase. The experiment is described as follows: Pancreatic lipase-inhibiting action of intermediates of Formula IVa (statement, no method given). The class given is biochemical. Conditions: qualitative statement.
As to `CCCCCCC1C(=O)OC1CCCCCOCc1ccccc1` (stereo not shown) [3-hexyl-4-[5(benzyloxy)pentyl}]oxetan-2-one], the “action inhibiting pancreatic lipase” value is recorded as “exhibit an action inhibiting pancreatic lipase”.
In the case of `CCCCCCC1C(=O)OC1CCCCCOC1CCCCO1` (stereo not shown) [3-hexyl-4-{5[(tetrahydro-2H-pyran-2-yl)oxy]pentyl}oxetan-2-one], the “action inhibiting pancreatic lipase” value is “exhibit an action inhibiting pancreatic lipase”.

Broadly, the IC50 is the concentration that gives 50% inhibition.

The record behind these values is patent publication US7074822B2, “Alkyl carbamate-substituted β-lactones, process for their preparation, and pharmaceutical compositions containing them” (Solvay Pharmaceuticals GmbH, priority 2004, dated 2006).
